According to patent US20250129070A1, “BIFUNCTIONAL ANDROGEN RECEPTOR COMPOUNDS” (priority 2023, published 2025):

How the values were obtained:
AR / CBP ternary complex = experiment: Ternary complex formation assay (sandwich ELISA, AR capture / CBP detection) in VCaP cell lysates; assay type: cell-based; conditions: 1.5 hours treatment, sandwich ELISA (AR capture, CBP or p300 detection)
How it was run: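 Anti-AR (AR 441)-coated plates capture AR from lysates of VCaP cells grown ≥3 days at 50K/well in 5% charcoal-stripped FBS, dosed with bifunctional for 1.5 h and lysed 30 min at 4 °C. Co-captured CBP/p300 is probed with rabbit mAb and HRP anti-rabbit, then QuantaRed fluorescence (570/585) is read at 0, 5 and 15 min.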

VCaP cells = experiment: VCaP growth inhibition assay; assay type: cell-based; conditions: 30 pM R1881, 9 days, CTG
How it was run: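 Growth read by CTG luminescence after 9-day exposure to compound (final 100 nM–10 fM, 1:5 steps) plus 30 pM R1881, in phenol red-free DMEM with 5% CSS. Cells pre-incubated 72 h before dosing; IC50 by nonlinear 4-parameter regression.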

Compound | EC50 (AR / CBP ternary complex) [nM] | IC50 (VCaP cells) [nM]
COc1cc(OC2C(C)(C)C(NC(=O)c3ccc(N4CCN(C5CCN(c6ccc(-c7cc8cccc(-c9nn(C%10CCOCC%10)c%10c9CN(C(C)=O)CC%10)c8cn7)cn6)CC5)CC4)cc3)C2(C)C)ccc1C#N (stereo not drawn) [Compound 321, 4-[4-[1-[5-[8-(5-acetyl-1-tetrahydropyran-4-yl-6,7-dihydro-4H-pyrazolo[4,3-c]pyridin-3-yl)-3-isoquinolyl]-2-pyridyl]-4-piperidyl]piperazin-1-yl]-N-[3-(4-cyano-3-methoxy-phenoxy)-2,2,4,4-tetramethyl-cyclobutyl]benzamide] | < 1 | ≤ 0.1
COc1cc(OC2C(C)(C)C(NC(=O)c3ccc(N4CCN(C5CN(c6ccc(-c7cc8cccc(-c9nn(C%10CCOCC%10)c%10c9CN(C(C)=O)CC%10)c8cn7)cn6)C5)CC4)cc3)C2(C)C)ccc1C#N (stereo not drawn) [Compound 322, 4-[4-[1-[5-[8-(5-acetyl-1-tetrahydropyran-4-yl-6,7-dihydro-4H-pyrazolo[4,3-c]pyridin-3-yl)-3-isoquinolyl]-2-pyridyl]azetidin-3-yl]piperazin-1-yl]-N-[3-(4-cyano-3-methoxy-phenoxy)-2,2,4,4-tetramethyl-cyclobutyl]benzamide] | < 1 | ≤ 0.1
COc1cc(OC2C(C)(C)C(NC(=O)c3ccc(OC4CCC5(CC4)CC(N4CCC(n6nc(N7CCCc8cc(-c9cnn(C)c9)c(C(F)F)cc87)c7c6CCN(C(C)=O)C7)CC4)C5)cc3)C2(C)C)ccc1C#N (stereo not drawn) [Compound 396, 4-[2-[4-[5-acetyl-3-[7-(difluoromethyl)-6-(1-methylpyrazol-4-yl)-3,4-dihydro-2H-quinolin-1-yl]-6,7-dihydro-4H-pyrazolo[4,3-c]pyridin-1-yl]-1-piperidyl]spiro[3.5]nonan-7-yl]oxy-N-[3-(4-cyano-3-methoxy-phenoxy)-2,2,4,4-tetramethyl-cyclobutyl]benzamide] | < 1 | 0.1 to 1
CC(=O)N1CCc2c(c(N3CCCc4cc(C#N)c(C(F)F)cc43)nn2C2CCN(CC3C(C)CN(c4ncc(C(=O)NC5C(C)(C)C(Oc6ccc(C#N)c(Cl)c6)C5(C)C)cn4)CC3C)CC2)C1 (stereo not drawn) [Compound 458, 2-[4-[[4-[5-acetyl-3-[6-cyano-7-(difluoromethyl)-3,4-dihydro-2H-quinolin-1-yl]-6,7-dihydro-4H-pyrazolo[4,3-c]pyridin-1-yl]-1-piperidyl]methyl]-3,5-dimethyl-1-piperidyl]-N-[3-(3-chloro-4-cyano-phenoxy)-2,2,4,4-tetramethyl-cyclobutyl]pyrimidine-5-carboxamide] | < 1 | 0.1 to 1
COc1cc(OC2C(C)(C)C(NC(=O)c3ccc(N4CCC5(CCC(n6nc(N7CCCc8cc(-c9cnn(C)c9)c(C(F)F)cc87)c7c6CCN(C(C)=O)C7)CC5)C4)cc3)C2(C)C)ccc1C#N (stereo not drawn) [Compound 406, 4-[8-[5-acetyl-3-[7-(difluoromethyl)-6-(1-methylpyrazol-4-yl)-3,4-dihydro-2H-quinolin-1-yl]-6,7-dihydro-4H-pyrazolo[4,3-c]pyridin-1-yl]-2-azaspiro[4.5]decan-2-yl]-N-[3-(4-cyano-3-methoxy-phenoxy)-2,2,4,4-tetramethyl-cyclobutyl]benzamide] | 1 to 10 | 1 to 100
CC(=O)N1CCc2c(c(N3CCCc4ccc(C(F)F)cc43)nn2C2CCN(CC3CCN(c4ncc(C(=O)NC5C(C)(C)C(Oc6ccc(C#N)c(Cl)c6)C5(C)C)cn4)CC3)CC2)C1 (stereo not drawn) [Compound 150, 2-[4-[[4-[5-acetyl-3-[7-(difluoromethyl)-3,4-dihydro-2H-quinolin-1-yl]-6,7-dihydro-4H-pyrazolo[4,3-c]pyridin-1-yl]-1-piperidyl]methyl]-1-piperidyl]-N-[3-(3-chloro-4-cyano-phenoxy)-2,2,4,4-tetramethyl-cyclobutyl]pyrimidine-5-carboxamide] | 1 to 10 | ≤ 0.1
CC(=O)N1CCc2c(c(N3CCCc4cc(-c5ccn(C)n5)c(C(F)F)cc43)nn2C2CCN(CC3CCC(n4cc(C(=O)NC5C(C)(C)C(Oc6ccc(C#N)c(Cl)c6)C5(C)C)cn4)CC3)CC2)C1 (stereo not drawn) [Compound 241, 1-[4-[[4-[5-acetyl-3-[7-(difluoromethyl)-6-(1-methylpyrazol-3-yl)-3,4-dihydro-2H-quinolin-1-yl]-6,7-dihydro-4H-pyrazolo[4,3-c]pyridin-1-yl]-1-piperidyl]methyl]cyclohexyl]-N-[3-(3-chloro-4-cyano-phenoxy)-2,2,4,4-tetramethyl-cyclobutyl]pyrazole-4-carboxamide] | 1 to 10 | 0.1 to 1

Second part, the compound after the results:

EC50 (AR / CBP ternary complex) [nM] | IC50 (VCaP cells) [nM] | Compound
> 100 | 1 to 100 | CC(=O)N1CCc2c(c(N3CCCc4ccc(C(F)F)cc43)nn2C2CC3(C2)CN(C(=O)C2CC4(C2)CN(c2ncc(C(=O)NC5C(C)(C)C(Oc6ccc(C#N)c(Cl)c6)C5(C)C)cn2)C4)C3)C1 (stereo not drawn) [Compound 218, 2-[6-[6-[5-acetyl-3-[7-(difluoromethyl)-3,4-dihydro-2H-quinolin-1-yl]-6,7-dihydro-4H-pyrazolo[4,3-c]pyridin-1-yl]-2-azaspiro[3.3]heptane-2-carbonyl]-2-azaspiro[3.3]heptan-2-yl]-N-[3-(3-chloro-4-cyano-phenoxy)-2,2,4,4-tetramethyl-cyclobutyl]pyrimidine-5-carboxamide]
< 1 | ≤ 0.1 | CC(=O)N1CCc2c(c(N3CCCc4cc(-c5cnn(C)c5)c(C(F)F)cc43)nn2C2CCN(C[C@@H]3CCN(c4ncc(C(=O)NC5C(C)(C)C(Oc6ccc(C#N)c(Cl)c6)C5(C)C)cn4)C[C@@H]3C)CC2)C1 (stereo partly drawn) [Compound 363]
< 1 | ≤ 0.1 | COc1cc(OC2C(C)(C)C(NC(=O)c3ccc(N4CCN(C5CCN(c6ccc(-c7cc8c(cn7)N(c7nn(C9CCOCC9)c9c7CN(C(C)=O)CC9)CCC8)cn6)CC5)CC4)cc3)C2(C)C)ccc1C#N (stereo not drawn) [Compound 323, 4-[4-[1-[5-[l-(5-acetyl-1-tetrahydropyran-4-yl-6,7-dihydro-4H-pyrazolo[4,3-c]pyridin-3-yl)-3,4-dihydro-2H-1,7-naphthyridin-6-yl]-2-pyridyl]-4-piperidyl]piperazin-1-yl]-N-[3-(4-cyano-3-methoxy-phenoxy)-2,2,4,4-tetramethyl-cyclobutyl]benzamide]
< 1 | 0.1 to 1 | COc1cc(OC2C(C)(C)C(NC(=O)c3ccc(N4CCC(CN5CCC(n6nc(N7CCCc8cc(-c9cnn(C)c9)c(C)cc87)c7c6CCN(C(C)=O)C7)CC5)C(C)(C)C4)cc3)C2(C)C)ccc1C#N (stereo not drawn) [Compound 447, 4-[4-[[4-[5-acetyl-3-[7-methyl-6-(1-methylpyrazol-4-yl)-3,4-dihydro-2H-quinolin-1-yl]-6,7-dihydro-4H-pyrazolo[4,3-c]pyridin-1-yl]-1-piperidyl]methyl]-3,3-dimethyl-1-piperidyl]-N-[3-(4-cyano-3-methoxy-phenoxy)-2,2,4,4-tetramethyl-cyclobutyl]benzamide]
< 1 | 1 to 100 | Cn1cc(-c2cc3c(cc2C(F)F)N(c2cc(C4CCN(CC5CCN(c6ncc(C(=O)NC7C(C)(C)C(Oc8ccc(C#N)c(Cl)c8)C7(C)C)cn6)CC5)CC4)c4c(c2)n(C)c(=O)n4C)CCC3)cn1 (stereo not drawn) [Compound 214, N-[3-(3-chloro-4-cyano-phenoxy)-2,2,4,4-tetramethyl-cyclobutyl]-2-[4-[[4-[6-[7-(difluoromethyl)-6-(1-methylpyrazol-4-yl)-3,4-dihydro-2H-quinolin-1-yl]-1,3-dimethyl-2-oxo-benzimidazol-4-yl]-1-piperidyl]methyl]-1-piperidyl]pyrimidine-5-carboxamide]
